{"source": "patent US4211764A", "about": "“Gastric secretion stimulation with 2-amino-5-(2-aminoethyl)-1,3,4-thiadiozole” (priority 1978, dated 1980)", "key": {"gastric secretion [1]": {"tested_on": "gastric secretion", "details": "cited from earlier work; for secretory effect per os: introduced per os, clinical conditions, inactivated by the liver and enzymes"}, "gastric secretion [2]": {"tested_on": "gastric secretion", "format": "in vivo, human", "details": "hypodermic or intramuscular", "text": "(§1) Special attention was paid to side effects and the reproductibility of the secretory response after repeated administrations of the drug.\nThe clinical investigation also helped to determine effective doses of the proposed preparation for submaximum and maximum tests and different forms of administration."}, "[3]": {"experiment": "Physical properties of the dichlorohydrate", "format": "physicochemical", "text": "The dichlorohydrate of this compound is white-yellowish crystalline powder. […] Solution of this compound in 0.01 M of hydrochloric acid at a concentration of 10^-4 M has a characteristic absorption spectrum in the UV range with a maximum of 245±±1 nanometers."}, "H2 -receptors [4]": {"molecular_target": "H2 -receptors (Rattus norvegicus, UniProt P25102)", "sequence (P25102 whole entry)": "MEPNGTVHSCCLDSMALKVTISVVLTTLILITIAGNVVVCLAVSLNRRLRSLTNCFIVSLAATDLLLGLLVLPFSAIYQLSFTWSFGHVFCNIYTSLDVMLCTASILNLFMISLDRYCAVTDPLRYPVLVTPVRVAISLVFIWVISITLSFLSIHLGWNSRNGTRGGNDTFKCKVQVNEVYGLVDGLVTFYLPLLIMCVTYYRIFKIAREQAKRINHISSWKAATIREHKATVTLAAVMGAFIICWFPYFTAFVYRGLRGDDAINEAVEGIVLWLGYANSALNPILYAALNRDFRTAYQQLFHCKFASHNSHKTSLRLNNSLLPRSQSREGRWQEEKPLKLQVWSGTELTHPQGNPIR", "details": "uterus horn", "method": "Contractions of an isolated horn of uterus of a rat due to the effect of acetylcholine in a concentration of 1.10^-6 M were recorded on a paper tape."}, "[5]": {"details": "cited from earlier work"}, "arterial pressure [6]": {"tested_on": "arterial pressure", "experiment": "Arterial pressure in anesthetized cats", "details": "in vivo, iv, 0.1 mg/kg", "description": "These experiments were performed on 11 cats weighing 2.5 to 4.0 kg and anesthetized with urethane-chlorazol mixture containing 60 mg/kg of chlorazol and 600 mg/kg of urethane. The arterial pressure was measured in the common carotid artery with the aid of a mercury pressure gauge."}, "H2 -receptors [7]": {"molecular_target": "T1, H2 -receptors (Cavia porcellus, UniProt P47747)", "T1 construct": "from tissue; host or cells: isolated guinea pig auricles (atria)", "T1 sequence (P47747 whole entry)": "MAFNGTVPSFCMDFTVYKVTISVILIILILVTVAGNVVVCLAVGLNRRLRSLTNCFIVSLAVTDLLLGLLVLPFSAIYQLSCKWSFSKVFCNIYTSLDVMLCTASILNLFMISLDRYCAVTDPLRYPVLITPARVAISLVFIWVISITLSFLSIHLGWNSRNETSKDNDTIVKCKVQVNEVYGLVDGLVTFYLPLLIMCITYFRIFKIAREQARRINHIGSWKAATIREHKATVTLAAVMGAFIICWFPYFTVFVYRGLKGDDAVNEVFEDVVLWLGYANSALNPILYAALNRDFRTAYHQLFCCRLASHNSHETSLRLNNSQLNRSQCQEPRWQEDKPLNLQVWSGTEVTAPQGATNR", "experiment": "Heart rate of isolated auricles", "details": "isolated guinea pig auricles; read-out: pD2 value, H2 -receptors (heart rate) (converted)", "description": "Changes in the heart rate were measured, dose-response curves were plotted, and pD2 values were calculated."}, "dog's stomach": {"tested_on": "dog's stomach", "experiment": "Gastric secretion in dogs, administration per os", "format": "in vivo", "details": "thidazine 100 mg per head (parenterally and per os), histamine 10 and 20 mg, histalog 50 and 100 mg", "description": "(§2) Chronic experiments were performed on male dogs weighing 20 to 25 kg and having a gastric fistula; prior to experiments, the animals were starved for 18 hours."}, "H1 -receptors": {"molecular_target": "T2, H1 -receptors (Cavia porcellus, UniProt P31389)", "T2 construct": "from tissue; host or cells: isolated guinea pig ileum", "T2 sequence (P31389 whole entry)": "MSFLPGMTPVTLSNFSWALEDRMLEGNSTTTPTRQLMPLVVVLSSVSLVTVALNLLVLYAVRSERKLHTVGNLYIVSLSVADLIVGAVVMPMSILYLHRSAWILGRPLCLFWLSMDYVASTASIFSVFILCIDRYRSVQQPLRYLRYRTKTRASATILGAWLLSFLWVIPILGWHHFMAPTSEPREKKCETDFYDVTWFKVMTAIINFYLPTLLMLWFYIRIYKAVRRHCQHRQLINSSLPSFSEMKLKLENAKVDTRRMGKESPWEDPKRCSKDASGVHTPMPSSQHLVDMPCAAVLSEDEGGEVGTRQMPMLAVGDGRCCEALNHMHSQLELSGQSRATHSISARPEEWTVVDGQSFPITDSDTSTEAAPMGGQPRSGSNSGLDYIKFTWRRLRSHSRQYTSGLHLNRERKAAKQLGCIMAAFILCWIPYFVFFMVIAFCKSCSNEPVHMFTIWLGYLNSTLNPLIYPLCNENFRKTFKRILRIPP", "experiment": "Contraction of isolated ileum", "details": "guinea pig ileum; read-out: pD2 value in relation to H1 -receptors (converted)"}, "H2 -ceptors": {"molecular_target": "H2 -ceptors (Canis lupus familiaris, UniProt P17124)", "sequence (P17124 whole entry)": "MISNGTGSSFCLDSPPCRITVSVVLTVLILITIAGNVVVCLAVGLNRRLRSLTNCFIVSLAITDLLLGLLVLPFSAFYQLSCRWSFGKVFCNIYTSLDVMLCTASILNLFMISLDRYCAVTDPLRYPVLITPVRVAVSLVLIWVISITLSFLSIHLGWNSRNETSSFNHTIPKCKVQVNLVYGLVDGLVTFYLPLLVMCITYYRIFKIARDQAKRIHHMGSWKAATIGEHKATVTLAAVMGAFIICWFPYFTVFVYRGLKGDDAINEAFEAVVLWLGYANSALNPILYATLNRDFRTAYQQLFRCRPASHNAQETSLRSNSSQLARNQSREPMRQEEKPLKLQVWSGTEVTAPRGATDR", "experiment": "Gastric secretion in dogs with gastric fistula, intramuscular injection", "details": "animal (dog)", "description": "as §2\nThe gastric juice was analyzed for titratable acidity and proteolytic activity. The hydrochloric acid output was calculated in milliequivalents (mEq) and that of pepsin in milligrams."}, "[8]": {"tested_on": "cardiovascular system (hypotension)", "details": "relative to histamine; cited from earlier work"}, "[9]": {"tested_on": "gastric secretion of patients with duodenal ulceration", "experiment": "Clinical comparison in patients with duodenal ulceration", "format": "in vivo, human", "text": "as §1\nHistamine and Pentagastrin Upon Main Gastric Secretion\nCharacteristics of Patients With Duodenal Ulceration"}, "total acidity": {"tested_on": "total acidity", "experiment": "Clinical reproducibility of secretory response (total acidity)", "format": "in vivo, human", "details": "0.01 mg/kg hypodermic", "text": "as §1\nReproducibility of Secretory Response to Introduction\nof Thidazine and Histamine with Reference to Total\nAcidity Values (each group of patients includes 10 persons)\n^(x) Percentage of difference is the relationship of the difference\nbetween the total acidity values registered in the first and second tests\nof a patient to the greater of these values."}, "[10]": {"tested_on": "gastric secretion of patients", "experiment": "Clinical comparison of thidazine with simple histamine test", "format": "in vivo, human", "details": "20 patients; thidazine 1.5 mg/kg parenteral, histamine 0.01 mg/kg; >0.05", "text": "as §1"}, "arterial pressure [11]": {"tested_on": "arterial pressure", "experiment": "Arterial pressure in rabbits", "details": "intravenous, thidazine 0.1 mg/kg, equimolar doses of histamine and histalog", "method": "In a series of experiments of 18 rabbits weighing 2.5 to 3.5 kg, each having the common carotid artery in a cutaneous flap, the preparations were injected intravenously."}, "H2 -receptors [12]": {"tested_on": "H2 -receptors", "experiment": "Prevention of thidazine-induced gastric secretion by an H2 -antagonist", "format": "in vivo, dog", "details": "dogs, methiamide 30 mg/kg before thidazine 2 mg/kg intramuscular"}, "[13]": {"tested_on": "gastric secretion of patients of middle age group", "experiment": "Clinical test: effects of maximum doses upon gastric secretion of patients", "format": "in vivo, human", "details": "for Hourly HCl output: 15 observations", "text": "as §1"}}, "note": "Structures can show the parent of a compound that is named as a salt. Where two headings read alike, the source gives them in different places.", "data": [{"smiles": "Cc1[nH]cnc1CCN", "note": "[5-methylhistamine]", "values": [{"measurement": "secretory effect per os", "setting": "gastric secretion [1]", "value": "no secretory effect is produced"}]}, {"smiles": "Cl.Cl.NCCc1c[nH]cn1", "note": "[Histamine dichloride, reference compound]", "values": [{"measurement": "dose for maximum secretion test", "setting": "gastric secretion [2]", "value": 0.025, "unit": "mg/kg"}, {"measurement": "dose for submaximum secretion test", "setting": "gastric secretion [2]", "value": 0.008, "unit": "mg/kg"}]}, {"smiles": "NCCc1nnc(N)s1", "note": "[dihydrochloride of 2-amino-5-(2-aminoethyl)-1,3,4-thiadiazole]", "values": [{"measurement": "stability of aqueous solution", "setting": "[3]", "value": "stable over prolonged periods of time"}, {"measurement": "hygroscopicity", "setting": "[3]; powder", "value": "poor hygroscopicity"}, {"measurement": "reaction (acidity) of solution", "setting": "[3]; solutions before neutralization to pH 6 to 7", "value": "strongly acidic reaction"}, {"measurement": "solubility in water", "setting": "[3]; water", "value": "readily soluble in water"}]}, {"smiles": "NCCc1cc[nH]n1", "note": "[histalog, 3-(5)-(2-aminoethyl)pyrazole, reference compound]", "values": [{"measurement": "Emax", "setting": "H2 -receptors [4]", "value": 16, "unit": "%"}, {"measurement": "side effects", "setting": "[5]; in vivo", "value": "side effects are observed far less frequently than in the case of histamine"}, {"measurement": "dose for maximum secretion test", "setting": "gastric secretion [2]", "value": 1.7, "unit": "mg/kg"}, {"measurement": "dose for submaximum secretion test", "setting": "gastric secretion [2]", "value": 0.9, "unit": "mg/kg"}, {"measurement": "reduction of arterial pressure", "setting": "arterial pressure [6]", "value": "30 mm of mercury"}, {"measurement": "secretory response of the stomach", "setting": "gastric secretion [1]; humans, parenteral, 1 to 5 mg/kg", "value": "maximum secretory response of the stomach"}, {"measurement": "secretory effect per os", "setting": "gastric secretion [1]", "value": "no secretory effect is produced"}, {"measurement": "capability of stimulating gastric secretion, times less effective than histamine", "setting": "gastric secretion [1]; relative to histamine", "value": 70, "unit": "times"}, {"measurement": "EC50", "setting": "H2 -receptors [7]", "value": 15.8, "unit": "µM"}, {"measurement": "gastric secretion after administration per os", "setting": "dog's stomach", "value": "no gastric secretion"}, {"measurement": "EC50", "setting": "H1 -receptors", "value": 58.9, "unit": "µM"}, {"measurement": "production of maximum level of hydrochloric acid secretion in the stomach", "setting": "H2 -ceptors", "value": "can produce a maximum level of hydrochloric acid secretion"}, {"measurement": "hypotensive effect, times as low as that of histamine", "setting": "[8]", "value": 700, "unit": "times"}]}, {"smiles": "NCCc1c[nH]cn1", "note": "[histamine, reference compound]", "values": [{"measurement": "Chymosin Output", "setting": "[9]; 1st hour (basal secretion)", "value": "16.0 ± 0.008", "unit": "units per hour"}, {"measurement": "Pepsin Output", "setting": "[9]; 1st hour (basal secretion)", "value": "3.7 ± 1.2", "unit": "units per hour"}, {"measurement": "Secretion, milliequivalents per hour", "setting": "[9]; 1st hour (basal secretion)", "value": "7.0 ± 1.2", "unit": "Milliequivalents per hour"}, {"measurement": "Chymosin Output", "setting": "[9]; 2nd hour", "value": "16.4 ± 0.04", "unit": "units per hour"}, {"measurement": "Pepsin Output", "setting": "[9]; 2nd hour", "value": "4.8 ± 3.0", "unit": "units per hour"}, {"measurement": "Secretion, milliequivalents per hour", "setting": "[9]; 2nd hour", "value": "19.4 ± 1.6", "unit": "Milliequivalents per hour"}, {"measurement": "Emax", "setting": "H2 -receptors [4]", "value": 100, "unit": "%"}, {"measurement": "side effects", "setting": "[5]; patients", "value": "reddening of the skin, nausea, vomiting, headache, dizziness, bronchospasm, edema of the rima vocalis, hypotension, and shocks"}, {"measurement": "reduction of arterial pressure", "setting": "arterial pressure [6]", "value": "100 mm of mercury"}, {"measurement": "secretory effect per os", "setting": "gastric secretion [1]", "value": "no secretory effect is produced"}, {"measurement": "gastric secretion after administration per os", "setting": "dog's stomach", "value": "no gastric secretion"}, {"measurement": "% of difference (fluctuations) of total acidity, first and second tests", "setting": "total acidity", "value": "0-53%"}, {"measurement": "Average difference of total acidity", "setting": "total acidity", "value": 33, "unit": "%"}, {"measurement": "Free Acidity", "setting": "[10]", "value": "81.7+21 units"}, {"measurement": "HCl Output", "setting": "[10]", "value": "12+0.4 milliequivalents per hour"}, {"measurement": "Peak HCl Output", "setting": "[10]", "value": "8.8+0.2 milliequivalents"}, {"measurement": "Total Acidity", "setting": "[10]", "value": "92.0+23 units"}, {"measurement": "production of maximum level of hydrochloric acid secretion in the stomach", "setting": "H2 -ceptors", "value": "can produce a maximum level of hydrochloric acid secretion"}, {"measurement": "reduction of arterial pressure", "setting": "arterial pressure [11]", "value": "40 mm of mercury"}]}, {"smiles": "CNC(=S)NCCSCc1nc[nH]c1C", "note": "[methiamide]", "values": [{"measurement": "prevention of thidazine secretory effect", "setting": "H2 -receptors [12]", "value": "completely prevented"}]}, {"smiles": "CSCC[C@H](NC(=O)[C@H](Cc1c[nH]c2ccccc12)NC(=O)CCNC(=O)OC(C)(C)C)C(=O)N[C@@H](CC(=O)O)C(=O)N[C@@H](Cc1ccccc1)C(N)=O", "note": "[pentagastrin, reference compound]", "values": [{"measurement": "Chymosin Output", "setting": "[9]; 1st hour (basal secretion)", "value": "157.3 ± 5.9", "unit": "units per hour"}, {"measurement": "Pepsin Output", "setting": "[9]; 1st hour (basal secretion)", "value": "3.3 ± 0.8", "unit": "units per hour"}, {"measurement": "Secretion, milliequivalents per hour", "setting": "[9]; 1st hour (basal secretion)", "value": "7.4 ± 0.8", "unit": "Milliequivalents per hour"}, {"measurement": "Pepsin Output", "setting": "[9]; 2nd hour", "value": "19.3 ± 3.8", "unit": "units per hour"}, {"measurement": "Secretion, milliequivalents per hour", "setting": "[9]; 2nd hour", "value": "24.8 ± 1.5", "unit": "Milliequivalents per hour"}, {"measurement": "side effects", "setting": "[5]; patients", "value": "can produce allergic and anaphylactic reactions as a result of repeated administrations"}, {"measurement": "HCl Concentration", "setting": "[13]; 1st hour (basal secretion)", "value": "35.3 milliequivalents per liter"}, {"measurement": "HCl Concentration", "setting": "[13]; 2nd hour (response to drug)", "value": "94.0 milliequivalents per liter"}, {"measurement": "Gastric Juice, Δ%", "setting": "[13]; 2nd versus 1st hour", "value": "+63.7%"}, {"measurement": "Hourly HCl output, Δ%", "setting": "[13]; 2nd versus 1st hour", "value": "+345.9%"}, {"measurement": "Hourly HCl output", "setting": "[13]; 1st hour (basal secretion)", "value": 3.7, "unit": "milliequivalents per hour"}, {"measurement": "Hourly HCl output", "setting": "[13]; 2nd hour (response to drug)", "value": 16.5, "unit": "milliequivalents per hour"}, {"measurement": "Gastric Juice", "setting": "[13]; pentagastrin 6 mg/kg, 1st hour (basal secretion)", "value": 106.3, "unit": "ml per hour"}, {"measurement": "Gastric Juice", "setting": "[13]; pentagastrin 6 mg/kg, 2nd hour (response to drug)", "value": 174.0, "unit": "ml per hour"}, {"measurement": "HCl Concentration, Δ%", "setting": "[13]; pentagastrin 6 mg/kg, 2nd versus 1st hour", "value": "+166.3%"}, {"measurement": "secretory effect per os", "setting": "gastric secretion [1]", "value": "no secretory effect is produced"}, {"measurement": "duration of effect of a single dose", "setting": "gastric secretion [1]; single dose", "value": "does not last long"}, {"measurement": "level of secretion", "setting": "gastric secretion [1]; sufficient dose", "value": "can produce a maximum level of secretion"}]}]}
